# According to patent US20090018620A1, “METHOD FOR RESTORING AN E[…]” ([…], priority 2007, published 2009):
# Entries after “also recorded” stand apart in the source; their conditions may differ.
# Key:
# [1] = tested on: LSt neurons; experiment: Muscimol injection into LSt neuron area at L4 immediately before intraspinal microstimulation, BS EMG recording (FIG. 3); type: in vivo, rat
# Experimental: (§1) All procedures were in accordance with the European Communities Council Directives 86/609/EEC on the use of laboratory animals. Male adult sexually naïve Wistar rats (Janvier, Le Genest-St-Isle, France) of 275-325 grams, housed for at least 4 days in our animal facility before experimentation, were anesthetized with […] intraperitoneal urethane while body temperature was maintained at 37° C. with a homeothermic blanket. […] Custom-made bipolar steel wire electrodes (AS631, CoonerWire, CA, USA) were implanted into the exposed dorsal part of the right bulbospongiosus (BS) muscle. After suprapubic midline abdominal incision, a 1.1 mm diameter mineral oil-filled catheter was inserted into the lumen of the right seminal vesicle (SV) via its apex or the right vas deferens (VD) was cut and a 0.61 mm diameter catheter filled with isotonic salt solution inserted into the prostatic portion of the VD lumen. Then, the spine was exposed dorsally and fixed with a stereotaxic frame. Laminectomy was performed between vertebrae L1-T13 to expose […] spinal level and the dura was carefully removed. To improve intraspinal access, we incubated the spinal cord for 20 minutes with 3 units/μl collagenase type VII from Clostridium histolyticum (Sigma-Aldrich Chimie, St.Quentin Fallavier, France). To target T12 to L6 spinal levels in FIG. 2C, we performed 2-3 laminectomies on the same animal. Acute spinalization was performed through a complete spinal transection between T8 and T9 spinal levels one hour before microstimulation started. We performed bilateral sectioning of i) the hypogastric and pelvic nerves close to the major pelvic ganglion or iii) the dorsal nerves of the penis at the penile crus. A single experiment lasted 2 to 4 hours.
# (§2) Monopolar spinal microstimulation was performed with a ‘Formvar’-coated nichrome wire of 50 μm diameter (AM-Systems Inc. WA, USA). Typically, the electrode was positioned on the dorsal surface at L4 spinal level, adjacent to the right of the dorsal spinal artery and lowered vertically with a hydraulic microdrive (Trent-Wells, Coulterville, Calif., USA) to ˜1600 μm depth in correspondence with the stereotaxic coordinates for laminae VII and X (S2), taking as electrode depth the read-out of the microdrive. A reference electrode was placed in the vicinity of the tail. Electrical stimuli were delivered using a pulse generator (model-2100, AM-Systems Inc. WA, USA). Biphasic rectangular current pulses of 0.5 ms duration applied in short trains of 60 to 100 pulses at 200 Hz for a total duration of 300 to 500 ms were applied. This stimulus was optimal without causing temporal overlap between stimulus and the SV/VD/BS muscle responses, according to preliminary experiments. […]
# [2] = tested on: LSt neurons; experiment: Muscimol injection into LSt neuron area 3.4 s after LSt neuron microstimulation, during ongoing rhythmic BS EMG activity (FIG. 4); type: in vivo, rat
# Experimental: as §1, §2
# [3] = ~20 minutes after muscimol injection
structure (smiles),measurement,setting,value
NCc1cc(=O)[nH]o1 [muscimol],"BS EMG activity following microstimulation, of the control response","[1]; anesthetized rats, 50 μM muscimol injected at L4 near electrode tip, microstimulation immediately after, n=5, P<10^−5",6±5%
same,BS EMG activity during the time of microstimulation (unrelated to the ejaculation response) in the presence of muscimol as compared to controls,"[1]; anesthetized rats, n=5, P=0.07",58±25%
same,Effect on BS EMG activity evoked by second identical microstimulation (example experiment),"[1]; ~200 nl of 50 μM muscimol in the vicinity of the electrode tip, immediately before microstimulation",abolished BS EMG activity
same,BS EMG response to third microstimulation (recovery),[1]; [3],partial response recovery
same,Time to full suppressive effect on BS EMG activity after muscimol injection,"[2]; average of 5 animals, injection total duration 400 ms",≤ 160 ± 120 ms
same,"Rhythmic pattern of BS EMG activity, of the control response","[2]; muscimol applied 3.4 s after end of LSt neuron microstimulation, mean BS rEMG 0.3-15.3 s after injection, n=5, P<10^−5",2±2%
same,Effect on ongoing BS EMG activity (example experiment),"[2]; ~200 nl of 50 μM muscimol injected 3.4 s after microstimulation, LSt neuron area adjacent to electrode tip",completely interrupted the BS EMG activity; also recorded: rapidly turned off BS EMG activity
same,BS EMG response to microstimulation after recovery period,[2]; [3],partial response recovery
